Broadly, the IC50 is the point on the concentration scale where inhibition reaches its midpoint. Usually inhibition stands for the relative decrease from the control value, in per cent. For orientation: melting point means the temperature of the solid-liquid transition.

33 molecules from US7276508B2, “Indole derivatives useful for the treatment of CNS disorders” (H. Lundbeck A/S, priority 2000, dated 2007) can be followed below.

In the first series the target is T1, human cloned dopamine D4.2 receptors (Homo sapiens, UniProt P21917, DEL265-296).
T1 construct: expressed in transfected cells; host or cells: CHO cells (membranes)
T1 sequence (P21917 with tags, fused parts or gaps DEL265-296): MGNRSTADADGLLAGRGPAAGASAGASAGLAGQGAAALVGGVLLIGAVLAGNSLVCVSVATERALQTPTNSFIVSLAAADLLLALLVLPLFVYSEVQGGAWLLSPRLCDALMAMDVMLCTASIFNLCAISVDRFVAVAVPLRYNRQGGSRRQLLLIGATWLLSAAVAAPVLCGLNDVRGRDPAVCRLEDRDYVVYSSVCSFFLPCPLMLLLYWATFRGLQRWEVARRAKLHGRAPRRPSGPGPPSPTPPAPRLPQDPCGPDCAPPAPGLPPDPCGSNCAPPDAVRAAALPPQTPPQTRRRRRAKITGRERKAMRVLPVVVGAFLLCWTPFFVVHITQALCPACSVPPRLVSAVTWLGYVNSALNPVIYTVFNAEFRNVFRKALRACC
Put plainly: Inhibition of the binding of [3H]YM-09151-2 to human dopamine D4 receptors. The settings on record: [3H]YM-09151-2 0.06 nM, membranes of CHO cells; read-out: D4-bind. IC50. On the procedure:
Inhibition of the Binding of [^3H]YM-09151-2 to Human Dopamine D4 Receptors
By this method, the inhibition by drugs of the binding of [^3H]YM-09151-2 (0.06 nM) to membranes of human cloned dopamine D4.2 receptors expressed in CHO-cells is determined in vitro. Method modified from NEN Life Science Products, Inc., technical data certificate PC2533-10/96.
For the molecule `O=C1CCc2ccccc2N1CCCCN1CCC(c2c[nH]c3ccc(F)cc23)CC1` [Compound 4, 5-Fluoro-3-{1-[4-(2-oxo-3,4-dihydro-2H-quinolin-1-yl)butan-1-yl]piperidin-4-yl}-1H-indole], the IC50 is 4.8 nM.

Regarding `Fc1ccc2[nH]cc(C3=CCN(CCCCN4CCCc5ccccc54)CC3)c2c1` [Compound 9m, 5-Fluoro-3-{1-[4-(3,4-dihydro-2H-quinolin-1-yl)butan-1-yl]-3,6-dihydro-2H-pyridin-4-yl}-1H-indole], the IC50 turned out to be 17 nM. Same read-out and setting: for `O=C1COc2ccccc2N1CCCCN1CCC(c2c[nH]c3ccc(F)cc23)CC1` [Compound 2g, 5-Fluoro-3-{1-[4-(3-oxo-3,4-dihydro-2H-1,4-benzoxazin-4-yl)butan-1-yl]piperidin-4-yl}-1H-indole] the value was 7.5 nM; for `Fc1ccc2[nH]cc(C3=CCN(CCCCCN4CCCc5ccccc54)CC3)c2c1` [Compound 9n, 5-Fluoro-3-{1-[5-(3,4-dihydro-2H-quinolin-1-yl)pentan-1-yl]-3,6-dihydro-2H-pyridin-4-yl}-1H-indole], 53 nM; for `O=C1CCc2ccccc2N1CCCN1CCC(c2c[nH]c3ccc(F)cc23)CC1` [Compound 2a, 5-Fluoro-3-{1-[3-(2-oxo-3,4-dihydro-2H-quinolin-1-yl)propan-1-yl]piperidin-4-yl}-1H-indole], 0.58 nM. Same read-out and setting: for `O=C1COc2ccccc2N1CCCCN1CCC(c2c[nH]c3ccc(Cl)cc23)CC1` [Compound 2h, 5-Chloro-3-{1-[4-(3-oxo-3,4-dihydro-2H-1,4-benzoxazin-4-yl)butan-1-yl]piperidin-4-yl}-1H-indole] the value was 10 nM; for `O=C1CCc2ccccc2N1CCCN1CCC(c2c[nH]c3ccc(Cl)cc23)CC1` [Compound 2c, 5-Chloro-3-{1-[3-(2-oxo-3,4-dihydro-2H-quinolin-1-yl)propan-1-yl]piperidin-4-yl}-1H-indole], 0.69 nM. Still for that read-out and setting: for `O=C1CCc2ccccc2N1CCCCN1CC=C(c2c[nH]c3ccc(F)cc23)CC1` [Compound 3b, 5-Fluoro-3-{1-[4-(2-oxo-3,4-dihydro-2H-quinolin-1-yl)butan-1-yl]-3,6-dihydro-2H-pyridin-4-yl}-1H-indole] the value was 5 nM; for `Fc1ccc2[nH]cc(C3=CCN(CCCN4CCCc5ccccc54)CC3)c2c1` [Compound 9l, 5-Fluoro-3-{1-[3-(3,4-dihydro-2H-quinolin-1-yl)propan-1-yl]-3,6-dihydro-2H-pyridin-4-yl}-1H-indole], 0.51 nM. Turning to `O=C1CCc2ccccc2N1CCCCN1CCC(c2c[nH]c3ccc(Cl)cc23)CC1` [Compound 2d, 5-Chloro-3-{1-[4-(2-oxo-3,4-dihydro-2H-quinolin-1-yl)butan-1-yl]piperidin-4-yl}-1H-indole], the IC50 was 8 nM. `O=C1CCc2ccccc2N1CCCN1CC=C(c2c[nH]c3ccc(F)cc23)CC1` [Compound 3a, 5-Fluoro-3-{1-[3-(2-oxo-3,4-dihydro-2H-quinolin-1-yl)propan-1-yl]-3,6-dihydro-2H-pyridin-4-yl}-1H-indole]: the IC50 is 0.71 nM. As to `O=C1CCc2ccccc2N1CCCCCN1CC=C(c2c[nH]c3ccc(F)cc23)CC1` [Compound 3c, 5-Fluoro-3-{1-[5-(2-oxo-3,4-dihydro-2H-quinolin-1-yl)pentan-1-yl]-3,6-dihydro-2H-pyridin-4-yl}-1H-indole], the IC50 worked out at 15 nM. As for `O=C1CCc2ccccc2N1CCCCCN1CCC(c2c[nH]c3ccc(F)cc23)CC1` [Compound 2b, 5-Fluoro-3-{1-[5-(2-oxo-3,4-dihydro-2H-quinolin-1-yl)pentan-1-yl]piperidin-4-yl}-1H-indole], the IC50 was found to be 12 nM. Same read-out and setting: for `O=C1CCc2ccccc2N1CCCCCN1CCC(c2c[nH]c3ccc(Cl)cc23)CC1` [Compound 2e, 5-Chloro-3-{1-[5-(2-oxo-3,4-dihydro-2H-quinolin-1-yl)pentan-1-yl]piperidin-4-yl}-1H-indole] the value was 12 nM.

Staying with this series, now noted: at 50 nM compound; [3H]YM-09151-2 0.06 nM, membranes of CHO cells.
With `O=C(CCCCN1CCC(c2c[nH]c3c(Cl)cccc23)CC1)N1CCc2ccccc2C1` [Compound 10l], the “D4-bind. % inhibition of binding at 50 nM” value is 82%. Same read-out and setting: for `O=C1c2ccccc2CCN1CCCN1CCC(c2c[nH]c3ccc(F)cc23)CC1` [Compound 1b] the value was 97%. As for `O=C1c2ccccc2CCN1CCCCN1CCC(c2c[nH]c3ccc(F)cc23)CC1` [Compound 1c], the “D4-bind. % inhibition of binding at 50 nM” value was determined as 95%.

The same series, now with this note: at 50 nM compound; [3H]YM-09151-2 0.06 nM, membranes of CHO cells; read-out: D4-bind. % inhibition of binding at 50 nM.
Turning to `O=C(CCCCCN1CCC(c2c[nH]c3cccc(F)c23)CC1)N1CCc2ccccc2C1` [Compound 10c, 4-Fluoro-3-{1-[6-(3,4-dihydro-1H-isoquinolin-2-yl)-6-oxohexan-1-yl]piperidin-4-yl}-1H-indole], the inhibition at 0.05 µM was determined as 21%.

For the molecule `O=C(CCCCN1CCC(c2c[nH]c3cccc(Cl)c23)CC1)N1CCc2ccccc2C1` [Compound 10e, 4-Chloro-3-{1-[5-(3,4-dihydro-1H-isoquinolin-2-yl)-5-oxopentan-1-yl]piperidin-4-yl}-1H-indole], the inhibition at 0.05 µM is 25%. Same read-out and setting: for `O=C(CCCCCN1CCC(c2c[nH]c3cccc(Cl)c23)CC1)N1CCc2ccccc2C1` [Compound 10f, 4-Chloro-3-{1-[6-(3,4-dihydro-1H-isoquinolin-2-yl)-6-oxohexan-1-yl]piperidin-4-yl}-1H-indole] the value was 17%; for `O=C(CCCN1CCC(c2c[nH]c3cccc(Cl)c23)CC1)N1CCc2ccccc2C1` [Compound 10d, 4-Chloro-3-{1-[4-(3,4-dihydro-1H-isoquinolin-2-yl)-4-oxobutan-1-yl]piperidin-4-yl}-1H-indole], 86%; for `O=C(CCCCCN1CCC(c2c[nH]c3c(Cl)cccc23)CC1)N1CCc2ccccc2C1` [Compound 10m, 7-Chloro-3-{1-[6-(3,4-dihydro-1H-isoquinolin-2-yl)-6-oxohexan-1-yl]piperidin-4-yl}-1H-indole], 69%. The same measure, in the same setting: for `O=C1CCc2ccccc2N1CCN1CCC(c2c[nH]c3ccc(F)cc23)CC1` [Compound 1a, 5-Fluoro-3-{1-[2-(2-oxo-3,4-dihydro-2H-quinolin-1-yl)ethyl]piperidin-4-yl}-1H-indole] the value was 92%; for `O=C(CCCN1CCC(c2c[nH]c3cccc(F)c23)CC1)N1CCc2ccccc2C1` [Compound 10b, 4-Fluoro-3-{1-[4-(3,4-dihydro-1H-isoquinolin-2-yl)-4-oxobutan-1-yl]piperidin-4-yl}-1H-indole], 81%; for `O=C(CCCCCN1CCC(c2c[nH]c3cc(Cl)ccc23)CC1)N1CCc2ccccc2C1` [Compound 10j, 6-Chloro-3-{1-[6-(3,4-dihydro-1H-isoquinolin-2-yl)-6-oxohexan-1-yl]piperidin-4-yl}-1H-indole], 70%. Still for that read-out and setting: for `O=C(CCN1CCC(c2c[nH]c3cc(Cl)ccc23)CC1)N1CCc2ccccc2C1` [Compound 10i, 6-Chloro-3-{1-[3-(3,4-dihydro-1H-isoquinolin-2-yl)-3-oxopropan-1-yl]piperidin-4-yl}-1H-indole] the value was 94%; for `O=C(CCN1CCC(c2c[nH]c3cccc(F)c23)CC1)N1CCc2ccccc2C1` [Compound 10a, 4-Fluoro-3-{1-[3-(3,4-dihydro-1H-isoquinolin-2-yl)-3-oxopropan-1-yl]piperidin-4-yl}-1H-indole], 93%.

In the case of `O=C(CCCCN1CCC(c2c[nH]c3ccc(F)cc23)CC1)N1CCc2ccccc2C1` [Compound 10g, 5-Fluoro-3-{1-[5-(3,4-dihydro-1H-isoquinolin-2-yl)-5-oxopentan-1-yl]piperidin-4-yl}-1H-indole], the inhibition at 0.05 µM was 65%. The same measure, in the same setting: for `O=C(CCCCCN1CCC(c2c[nH]c3ccc(F)cc23)CC1)N1CCc2ccccc2C1` [Compound 10h, 5-Fluoro-3-{1-[6-(3,4-dihydro-1H-isoquinolin-2-yl)-6-oxohexan-1-yl]piperidin-4-yl}-1H-indole] the value was 50%. On the same count and under the same terms, for `O=C1CCc2ccccc2N1CCCCN1CCC(c2c[nH]c3c(Cl)cccc23)CC1` [Compound 2f, 7-Chloro-3-{1-[4-(2-oxo-3,4-dihydro-2H-quinolin-1-yl)butan-1-yl]piperidin-4-yl}-1H-indole] the value was 78%; for `O=C(CCCN1CCC(c2c[nH]c3c(Cl)cccc23)CC1)N1CCc2ccccc2C1` [Compound 10k, 7-Chloro-3-{1-[4-(3,4-dihydro-1H-isoquinolin-2-yl)-4-oxobutan-1-yl]piperidin-4-yl}-1H-indole], 95%.

Test system in another series: not given
Experiment: not given
Details: not given
Molecule `O=C(CCCN1CCC(c2c[nH]c3ccc(F)cc23)CC1)N1CCc2ccccc2C1` [Compound 7, 5-Fluoro-3-{1-[4-(3,4-dihydro-1H-isoquinolin-2-yl)-4-oxobutan-1-yl]piperidin-4-yl}-1H-indole] displayed a melting point of 146 to 148 °C. Turning to `O=C(CCCN1CCC(c2c[nH]c3ccc(Cl)cc23)CC1)N1CCc2ccccc2C1` [Compound 8, 5-Chloro-3-{1-[4-(3,4-dihydro-1H-isoquinolin-2-yl)-4-oxobutan-1-yl]piperidin-4-yl}-1H-indole], the melting point lay in the range of 172 to 175 °C.
